{"source": "patent US20070281911A1", "about": "“Use of Adefovir or Tenofovir for Inhibiting Mmtv-Like Viruses Involved in Breast Cancer and Primary Biliary Cirrhosis” (GILEAD SCIENCES INC., priority 2004, published 2007)", "origin": "cited, not measured here", "molecular_target": "MMTV RT enzyme (Mouse mammary tumor virus, UniProt P03365)", "sequence (P03365 861-1437)": "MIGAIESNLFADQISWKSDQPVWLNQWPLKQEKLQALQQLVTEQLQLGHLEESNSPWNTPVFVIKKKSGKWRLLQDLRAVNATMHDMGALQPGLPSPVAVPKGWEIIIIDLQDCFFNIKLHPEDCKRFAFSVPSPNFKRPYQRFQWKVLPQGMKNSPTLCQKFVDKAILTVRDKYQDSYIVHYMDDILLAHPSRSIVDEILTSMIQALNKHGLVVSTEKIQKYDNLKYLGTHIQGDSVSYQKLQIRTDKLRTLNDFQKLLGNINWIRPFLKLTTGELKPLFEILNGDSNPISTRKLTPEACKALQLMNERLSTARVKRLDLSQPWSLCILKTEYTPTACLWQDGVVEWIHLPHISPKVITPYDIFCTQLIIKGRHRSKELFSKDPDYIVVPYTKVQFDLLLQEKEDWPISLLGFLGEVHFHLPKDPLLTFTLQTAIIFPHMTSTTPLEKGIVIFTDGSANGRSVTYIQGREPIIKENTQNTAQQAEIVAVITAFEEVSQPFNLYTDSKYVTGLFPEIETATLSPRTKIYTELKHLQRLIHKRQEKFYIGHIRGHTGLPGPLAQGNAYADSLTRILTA"}
{"compound": "Cc1cn([C@H]2C[C@H](N=[N+]=[N-])[C@@H](COP(=O)(O)OP(=O)(O)OP(=O)(O)O)O2)c(=O)[nH]c1=O", "note": "[AZTppp]", "values": [{"measurement": "direct inhibition of MMTV RT enzyme compared with HIV RT enzyme", "value": "as efficiently as the HIV RT enzyme"}]}
